“Also recorded” adds a separate entry of the source.
How the values were obtained:
zebrafish larvae = experiment: Inhibition of TBH-induced apoptosis in the brain of the zebrafish embryo (Acridine Orange); type: in vivo, zebrafish (Danio rerio); conditions: zebrafish larvae 96 hpf, TBH 0.45 mM, compound 1 μg/ml, 24 h
Protocol: To that end, an assay was performed on zebrafish larvae (96 hours post-fertilization). The fertilized eggs were obtained by a natural birth of adult zebrafish (AB strain) in the inventors' laboratory, carried out according to what is described in The Zebrafish Book [Westerfield, M. (1995) The Zebrafish Book. A Guide for the Laboratory Use of Zebrafish (Danio rerio). 3rd ed., University of Oregon Press, Eugene]. The eggs were collected in the 1st hour after spawning, washed and deposited in a clean Petri dish with embryo water (medium) (4.9 mM NaCl, 0.17 mM KCl, 0.33 mM CaCl.2H2O, 0.33 .mM MgSO4.7H2O, pH 7.2) prepared following the guidelines described in the book Zebrafish. Practical approach [Nusslein-Volhard, C and Dahm, R (2002) Zebrafish. Practical approach. Oxford: Oxford University Press].
The inhibition caused by the NST0003, NST0004 and NST0005 compounds on cell death caused by the tert-butyl hydroperoxide (TBH) compound, which is a pro-oxidizing compound which induces specific neurotoxicity in zebrafish larvae by means of the mechanism of apoptosis, was analyzed.
The larvae (at 96 hours post-fertilization [hpf]) were seeded in 96-well plates (3 larvae/well), performing a triplicate (3 wells) for experimental condition, thus obtaining an intra-assay triplicate. The larvae were treated in a total volume of embryo medium of 100 μl per well for the following conditions: (i) control (embryo medium); (ii), TBH [0.45 mM], which corresponds with the maximum tolerated dose (MTD), which induces neurotoxicity in the larvae but not mortality; and (iii) TBH [0.45 mM] and NST0003, NST0004 and NST0005, all at the concentration of 1 μg/ml. […]
Thus, the control larvae and the treated larvae were immersed in 1 μg/ml of AO in embryo water at 28.5° C. for 60 minutes. […] AO is a fluorescent compound which can be readily measured and quantified with a fluorometer. Therefore, the larvae were anesthetized with tricaine (3-aminobenzoic acid ethyl ester) and homogenized for their subsequent reading in a fluorescence plate reader (excitation: 488 nm; emission: 530 nm). […]

[1] = Crossing of the blood-brain barrier by PAMPA in vitro assay; type: in vitro ADME, pig; conditions: acid forms, 100 μM, pH 7.4, 18 h
Protocol: To that end, the PAMPA (Parallel Artificial Membrane Permeation Assay) assay was used, which uses a sandwich system contemplating the crossing of compounds by means of passive diffusion, preventing active transport.
A mixture of commercial lipids derived from pig brain with a phospholipid composition very similar to that which forms the human BBB, called PBL (Porcine Polar Brain Lipid), was used to mimic the BBB, and it was stored at −20° C. dissolved in dodecane at 100 μg/ml in glass vials. The verapamil and theophylline were prepared at 10 mM in DMSO, whereas the acid forms of NST0003, NST0004 and NST0005 were prepared in water and were activated with 0.1 N NaOH at 4° C. for 12 h.
At the time of the assay, 1.5 ml of the compounds to be evaluated at 100 μM were prepared in a phosphate buffer at pH 7.4, maintaining a constant concentration of DMSO of 1%. 5 μl of PBL at 20 μg/ml were added in a 96-well filter plate, with a polyvinylidene fluoride (PVDF) membrane, with a pore size of […] (MAIPN4550, Millipore). After 2 minutes, 300 μl of the phosphate buffer used to dilute the compounds were added. This plate was considered the “acceptor” plate and was placed in the top part of the sandwich. 300 μl of the compounds were added at 100 μM on another 96-well plate which is assembled with the previous one (MATRNP550 of Millipore) (called “donor”) and in triplicate. […] After that time, 100 μl of the wells of the donor plates and of the acceptor plates were transferred to a special 96-well plate for ultraviolet (UV) reading. […] The plate was introduced in a spectrophotometer in which a scan was carried out in UV from 230 to 498 nm, with readings every 4 nm. From the data provided by the spectrophotometer the percentage of barrier crossing as well as the effective permeability (Pe) were calculated by applying the following formula:
[formula] […] [formula] • [Drug]acceptor=Absorbance of the acceptor well • [Drug]equilibrium=Absorbance of the mean of the basal wells/2 • VA=Volume of the acceptor well=0.3 cm^3 • VD=Volume of the donor well=0.3 cm^3 • Area=0.24 cm^2 • Time=64,000 s

SMILES	reduction of apoptosis induced by TBH (zebrafish larvae) [%]	crossing of the blood-brain barrier [1]
CCC(=O)O[C@H]1C[C@@H](C)C=C2C=C[C@H](C)[C@H](CC[C@@H]3C[C@@H](O)CC(=O)O3)[C@H]21 [NST0003, (1S,3R,7S,8S,8aR)-1,2,3,7,8,8a-hexahydro-3,7-dimethyl-8-[2-[(2R,4R)-tetrahydro-4-hydroxy-6-oxo-2H-pyran-2-yl]ethyl-1-naphthalenyl propanoate]	50.7±17.1	capable of crossing the blood-brain barrier
CC(C)C(=O)O[C@H]1C[C@@H](C)C=C2C=C[C@H](C)[C@H](CC[C@@H]3C[C@@H](O)CC(=O)O3)[C@H]21 [NST0004]	45.3±18.9	capable of crossing the blood-brain barrier
C[C@H]1C=C2C=C[C@H](C)[C@H](CC[C@@H]3C[C@@H](O)CC(=O)O3)[C@H]2[C@@H](OC(=O)C(C)(C)C)C1 [NST0005]	34.3±17.3	highest capacity to cross the BBB; also recorded: capable of crossing the blood-brain barrier

From patent publication US20110319484A1, “NEUROPROTECTIVE COMPOUNDS” (Parque Tecnologico de Ciencias de la Salud, priority 2009, published 2011)
